Measurements reported in ChEMBL document CHEMBL1201862, “PubChem BioAssay data set” (2004).
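48-hour exposure; five concentrations; linearly interpolated endpoints. GI50 marks 50% less growth.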 Active and inactive are the calls of the source. Rule as the data show it: active = GI50 up to about 1.1 µM and inactive = higher.

Legend:
Assay in all cases: NCI tumour cell line growth inhibition, 48 h
A498 = system: A498
ACHN = system: ACHN
CCRF-CEM = system: CCRF-CEM
EKVX = system: EKVX
HT-29 = system: HT-29
M14 = system: M14
MDA-MB-435 = system: MDA-MB-435
MOLT-4 = system: MOLT-4
NCI-H226 = system: NCI-H226
NCI-H460 = system: NCI-H460
NCI-H522 = system: NCI-H522
OVCAR-8 = system: OVCAR-8
PC-3 = system: PC-3
SK-MEL-2 = system: SK-MEL-2
SN12C = system: SN12C
SR = system: SR
T47D = system: T47D
TK-10 = system: TK-10
UACC-257 = system: UACC-257
COLO 205 = system: COLO 205

Compound	GI50 (A498)	GI50 (ACHN)	GI50 (CCRF-CEM)	GI50 (EKVX)	GI50 (HT-29)	GI50 (M14)	GI50 (MDA-MB-435)	GI50 (MOLT-4)	GI50 (NCI-H226)	GI50 (NCI-H460)	GI50 (NCI-H522)	GI50 (OVCAR-8)	GI50 (PC-3)	GI50 (SK-MEL-2)	GI50 (SN12C)	GI50 (SR)	GI50 (T47D)	GI50 (TK-10)	GI50 (UACC-257)	GI50 (COLO 205)
OC(Cc1ccccc1)(Cc1ccccc1)c1ccccc1	19.9 µM (inactive)	18.4 µM (inactive)	20.7 µM (inactive)	12.3 µM (inactive)	15.9 µM (inactive)	17.7 µM (inactive)	17.5 µM (inactive)	24.6 µM (inactive)	18.4 µM (inactive)	19.4 µM (inactive)	14.7 µM (inactive)	19 µM (inactive)	18.7 µM (inactive)	15.3 µM (inactive)	17 µM (inactive)	25.1 µM (inactive)	33.7 µM (inactive)	19.8 µM (inactive)	18.5 µM (inactive)	
CCC/C=C/c1cc2c(cc1O)CC[C@@H]1[C@@H]2CC[C@]2(C)[C@@H](O)CC[C@@H]12	17.2 µM (inactive)	16.7 µM (inactive)	12 µM (inactive)	19.2 µM (inactive)	18.4 µM (inactive)	20.3 µM (inactive)	15.7 µM (inactive)	18.3 µM (inactive)	24.7 µM (inactive)	17.4 µM (inactive)	17.3 µM (inactive)	22.9 µM (inactive)	15.8 µM (inactive)	16.6 µM (inactive)		15.4 µM (inactive)	24.9 µM (inactive)	20.7 µM (inactive)	15.8 µM (inactive)	19.1 µM (inactive)
CCOC(=O)/C=C(\C)Sc1cc(O)c2ccccc2c1O	18.5 µM (inactive)	13.8 µM (inactive)	6.64 µM (inactive)	27.9 µM (inactive)	22.2 µM (inactive)	10.8 µM (inactive)	2.65 µM (inactive)	8.05 µM (inactive)	25.9 µM (inactive)	19.5 µM (inactive)	10.1 µM (inactive)	16.5 µM (inactive)	26.4 µM (inactive)	20.9 µM (inactive)	29.2 µM (inactive)	7.62 µM (inactive)	2.94 µM (inactive)	23.7 µM (inactive)	18.8 µM (inactive)	17.3 µM (inactive)
ON[C@H]1C[C@@H](n2cnc3c(NC4CC4)ncnc32)[C@H](O)[C@@H]1O	> 100 µM (inactive)	> 100 µM (inactive)	> 100 µM (inactive)	> 100 µM (inactive)	> 100 µM (inactive)	> 100 µM (inactive)	> 100 µM (inactive)	> 100 µM (inactive)	> 100 µM (inactive)	> 100 µM (inactive)	> 100 µM (inactive)	> 100 µM (inactive)	> 100 µM (inactive)	> 100 µM (inactive)	> 100 µM (inactive)	> 100 µM (inactive)	> 100 µM (inactive)	> 100 µM (inactive)	> 100 µM (inactive)	> 100 µM (inactive)
CCC[N+](C)(C)CCCNC(=O)c1c(O)c2ccccc2[nH]c1=O	> 100 µM (inactive)	> 100 µM (inactive)	> 100 µM (inactive)	> 100 µM (inactive)	> 100 µM (inactive)		> 100 µM (inactive)	> 100 µM (inactive)	77.1 µM (inactive)	> 100 µM (inactive)	> 100 µM (inactive)	> 100 µM (inactive)	> 100 µM (inactive)	> 100 µM (inactive)	> 100 µM (inactive)	> 100 µM (inactive)	> 100 µM (inactive)	> 100 µM (inactive)	> 100 µM (inactive)	> 100 µM (inactive)
CN(C)CCCNc1c2ccccc2nc2cccc([N+](=O)[O-])c12	< 0.001 µM (active)	< 0.001 µM (active)	0.00824 µM (active)	0.00185 µM (active)	< 0.001 µM (active)	< 0.001 µM (active)	< 0.001 µM (active)	0.01 µM (active)	0.0048 µM (active)	< 0.001 µM (active)	< 0.001 µM (active)	0.0195 µM (active)	< 0.001 µM (active)	< 0.001 µM (active)	0.00102 µM (active)	< 0.001 µM (active)	0.0158 µM (active)	0.00215 µM (active)	0.00275 µM (active)	< 0.001 µM (active)
COc1ccc(Br)c2c1CC(C(=O)O)CC2 (configuration not stated)	> 100 µM (inactive)	> 100 µM (inactive)	> 100 µM (inactive)	> 100 µM (inactive)	> 100 µM (inactive)	> 100 µM (inactive)	> 100 µM (inactive)	> 100 µM (inactive)	> 100 µM (inactive)	> 100 µM (inactive)	> 100 µM (inactive)	> 100 µM (inactive)	> 100 µM (inactive)	> 100 µM (inactive)	> 100 µM (inactive)	> 54 µM (inactive)	> 100 µM (inactive)	> 100 µM (inactive)	> 100 µM (inactive)	> 100 µM (inactive)
Cn1/c(=N\N=C2\C=C3CCCCC3(C)CC2)sc2ccccc21 (configuration not stated)	> 100 µM (inactive)	> 100 µM (inactive)	55.2 µM (inactive)	> 100 µM (inactive)	> 100 µM (inactive)	> 100 µM (inactive)	> 100 µM (inactive)		> 100 µM (inactive)	> 100 µM (inactive)	> 100 µM (inactive)	> 100 µM (inactive)	> 100 µM (inactive)	> 100 µM (inactive)	> 100 µM (inactive)	> 100 µM (inactive)	> 100 µM (inactive)	> 100 µM (inactive)	> 100 µM (inactive)	> 100 µM (inactive)
O=C(c1ccccc1)c1c(-c2ccccc2)n(-c2ccccc2)[nH]c(=O)c1=O	> 100 µM (inactive)	22.2 µM (inactive)	15.5 µM (inactive)	55.5 µM (inactive)	> 100 µM (inactive)	> 100 µM (inactive)	28.2 µM (inactive)	28.2 µM (inactive)	16.5 µM (inactive)	44.7 µM (inactive)	0.361 µM (active)	46 µM (inactive)	18.9 µM (inactive)	24 µM (inactive)	69 µM (inactive)	23.8 µM (inactive)	> 100 µM (inactive)	42.5 µM (inactive)	70.1 µM (inactive)	75.2 µM (inactive)
N#Cc1cnc(-n2[nH]c3c(c2=O)CCCC3)[nH]c1=O	59 µM (inactive)	47.2 µM (inactive)	31.9 µM (inactive)	37.6 µM (inactive)	41.2 µM (inactive)	38.1 µM (inactive)	54.5 µM (inactive)	44.5 µM (inactive)	47.8 µM (inactive)	36.5 µM (inactive)	57.3 µM (inactive)		59.4 µM (inactive)	71.3 µM (inactive)	44.2 µM (inactive)	23.8 µM (inactive)	> 100 µM (inactive)	51.5 µM (inactive)	55 µM (inactive)	38.5 µM (inactive)
O=C1OC[C@@H]2[C@@H](O)CCCCCN12	> 100 µM (inactive)	> 100 µM (inactive)	> 100 µM (inactive)	> 100 µM (inactive)	> 100 µM (inactive)		> 100 µM (inactive)	> 100 µM (inactive)	> 100 µM (inactive)	> 100 µM (inactive)	> 100 µM (inactive)	> 100 µM (inactive)	> 100 µM (inactive)	> 100 µM (inactive)	> 100 µM (inactive)	> 100 µM (inactive)	> 100 µM (inactive)	> 100 µM (inactive)	> 100 µM (inactive)	> 100 µM (inactive)
CN1CCC/C1=N\C#N	> 100 µM (inactive)	> 100 µM (inactive)	> 100 µM (inactive)	> 100 µM (inactive)	> 100 µM (inactive)	> 100 µM (inactive)	> 100 µM (inactive)	> 100 µM (inactive)	> 100 µM (inactive)	> 100 µM (inactive)	> 100 µM (inactive)	> 100 µM (inactive)	> 100 µM (inactive)	> 100 µM (inactive)	> 100 µM (inactive)	> 100 µM (inactive)	> 100 µM (inactive)	> 100 µM (inactive)		> 100 µM (inactive)
COc1cc([C@@H]2OC[C@@H]3C(c4cc(OC)c5c(c4)OCO5)OC[C@@H]32)cc(OC)c1OC (some centres not stated)	> 100 µM (inactive)	> 100 µM (inactive)	52.4 µM (inactive)	> 100 µM (inactive)	42.2 µM (inactive)	> 100 µM (inactive)	> 100 µM (inactive)	51.3 µM (inactive)	> 100 µM (inactive)	> 100 µM (inactive)	96.8 µM (inactive)	69.8 µM (inactive)	50.1 µM (inactive)	> 100 µM (inactive)		89.1 µM (inactive)	46.1 µM (inactive)	> 100 µM (inactive)	> 100 µM (inactive)	> 100 µM (inactive)
ClCC[N+]12CC[N+](CCCl)(CC1)C2	> 100 µM (inactive)	> 100 µM (inactive)	> 100 µM (inactive)	> 100 µM (inactive)	> 100 µM (inactive)	> 100 µM (inactive)	> 100 µM (inactive)	> 100 µM (inactive)	> 100 µM (inactive)	> 87.7 µM (inactive)	> 100 µM (inactive)	> 100 µM (inactive)	> 100 µM (inactive)	> 100 µM (inactive)	> 100 µM (inactive)	55 µM (inactive)	> 100 µM (inactive)	> 100 µM (inactive)	> 100 µM (inactive)	> 100 µM (inactive)
